Laboratory results from PubChem BioAssay AID1645848.
Values after ≈ are worked out from the molar mass of the structure shown.

conditions: buffer; pH 7.4; 6.0 h; 150.0 µM

Compound	solubility kinetic
COc1ccccc1-c1nnc2sc(-c3ccc(N(C)C)cc3)nn12	1.04 µg/mL (≈ 2.96 µM)
O=C(NCCCc1ccccc1)C1CCN(c2nc(-c3ccc(Br)cc3)cs2)CC1	3.28 µg/mL (≈ 6.77 µM)
CN(C(=O)OC(C)(C)C)[C@@H](Cc1ccc(O[S+](=O)([O-])c2cccc3cnccc23)cc1)C(=O)N1CCN(C(=O)OCc2ccccc2)CC1	< 1 µg/mL
O=C(NCC1Cn2cccc2CN1Cc1cccnc1)Nc1ccccc1 (stereo not drawn)	> 53 µg/mL
CC[C@@H](C)Nc1cc(C(=O)NC2CC3CCC(C2)N3c2ccc(C(=O)C3CC3)cn2)c(C)cc1C(N)=O (stereo partly drawn)	< 1 µg/mL
CNc1nc(C#N)c(-c2cccc3ccccc23)o1	< 1 µg/mL
CS(=O)(=O)c1cccc(-c2csc(N3CCC(C(N)=O)CC3)n2)c1	11.7 µg/mL (≈ 32 µM)
Cc1onc(-c2ccccc2)c1C(=O)Nc1nnc(COc2ccc(Cl)cc2)s1	< 1 µg/mL
Cc1noc(C)c1-c1ccc2ncnc(NCc3cccc(Cl)c3)c2c1	< 1 µg/mL
Cc1ccc(NC(=O)N2CCN(c3nc(N)nc4sc(-c5cccnc5)nc34)CC2)cc1	< 1 µg/mL
Cn1nnnc1SCCCNCc1cccc(OCc2ccccc2Cl)c1	> 60 µg/mL
O=C(O)c1cccc(-n2cccc2/C=C2/NC(=O)N(c3cccc(Cl)c3)C2=O)c1	32.7 µg/mL (≈ 80.1 µM)
CC1=C(C(=O)Nc2nncs2)C(c2nn(C)cc2Cl)N=C(Nc2nc3ccccc3o2)N1 (stereo not drawn)	16.3 µg/mL (≈ 34.6 µM)
Cc1ccc(N2CCC(CNc3nc(-c4ccccc4C(C)C)ncc3C)CC2)cn1	19.8 µg/mL (≈ 47.7 µM)
CC(C)c1ccc(Nc2c(-c3ccccn3)nc3ccccn23)cc1	< 1 µg/mL
Cc1ccc(CCNC(=O)C2CCCN(C(=O)c3cc4sccc4n3C)C2)cc1 (stereo not drawn)	3.09 µg/mL (≈ 7.55 µM)
CCOC(=O)C1=C(CN(CC)Cc2ccccc2)NC(=O)NC1c1ccc(OC(C)C)cc1 (stereo not drawn)	< 1 µg/mL
CC(C)(C)C1CCc2[nH]c3ccccc3c(=O)c2C1 (stereo not drawn)	1.88 µg/mL (≈ 7.34 µM)
O=C(O)CNC(=O)c1c(O)c2ccccc2n(Cc2ccccc2)c1=O	> 52 µg/mL

Compound	solubility kinetic
CC1=C[C@@H](CN2C(=O)C(C)=C(C)C2=O)[C@H](C(C)C)C[C@H]1Cc1nc2c(C)cccc2[nH]1	3.65 µg/mL (≈ 8.7 µM)
CC(C)(O)/C=C\C(=O)[C@](C)(O)[C@H]1[C@H](O)C[C@]2(C)[C@@H]3CC=C4[C@@H](C=C(O)C(=O)C4(C)C)[C@]3(C)C(=O)C[C@@]12C	> 51 µg/mL
COc1cc(O)c([C@H](CC(=O)N2CC(C)CC(C)C2)c2ccc3c(c2)OCO3)c(OC)c1 (stereo partly drawn)	2.51 µg/mL (≈ 5.69 µM)
C[C@@]1(C(=O)Nc2ccc(F)nc2)CCCN1c1nc(Nc2cc(C3CC3)[nH]n2)c2cccn2n1	31.1 µg/mL (≈ 67.4 µM)
Fc1ccc(-c2ccc(Nc3nc(-c4ccncc4)nc4ccccc34)cc2F)c(Cl)c1	< 1 µg/mL
CCCC1=Nc2cc(C(=O)NC3CCCCC3)ccc2Sc2ccc(C)cc21	1.37 µg/mL (≈ 3.48 µM)
Cc1ccnc(NC(=S)N2CCN(c3cc(F)cc(Cl)c3)CC2)c1	< 1 µg/mL
Cc1cc(Nc2ccc(Br)c(C)c2)n2nc(C)nc2n1	30.9 µg/mL (≈ 93 µM)
Cc1ccccc1Nc1c(-c2ccccc2O)nc2sccn12	< 1 µg/mL
CC(C)(C)c1ccc(S(=O)(=O)N2CCC(c3ccncc3)CC2)cc1	< 1 µg/mL
O=[S+]([O-])(Nc1ccc(C2CCNCC2)cc1)c1ccc(NCc2ccc(Cl)cc2O)cc1	23.9 µg/mL (≈ 50.6 µM)
Cc1cc(NC(=O)c2ccc(NC(=O)Cc3ccc(Cl)c(Cl)c3)cc2)no1	1.43 µg/mL (≈ 3.55 µM)
Oc1cccc2nc3ccccc3nc12	> 29 µg/mL
COc1ccc(-c2noc([C@@H]3Cc4nc[nH]c4CN3C(=O)NC3CCCCC3)n2)cc1	30.5 µg/mL (≈ 72.1 µM)
O=C1c2ccccc2C2=Nc3ccccc3SC(c3ccccc3F)C12 (stereo not drawn)	< 1 µg/mL
COc1ccc(-n2nc(C3CCCN([S+](=O)([O-])c4cccc(C(F)(F)F)c4)C3)[nH]c2=O)cc1 (stereo not drawn)	< 1 µg/mL
c1cn2cc(-c3ccc4cn[nH]c4c3)nc(Nc3ccc(N4CCOCC4)cc3)c2n1	< 1 µg/mL
Cc1ccc(-n2c(=O)c3oc4ccccc4c3n(CC(=O)Nc3ccc(F)c(Cl)c3)c2=O)cc1C	< 1 µg/mL
Cc1ccc(/C=C/c2nc3ccccc3n2S(=O)(=O)c2cccc(Cl)c2)cc1	< 1 µg/mL
